Data as given in ChEMBL document CHEMBL5042502, “Discovery of Potent and Selective 2-(Benzylthio)pyrimidine-based DCN1-UBC12 Inhibitors for Anticardiac Fibrotic Effects” (J Med Chem, 2022).
Active and inactive are the calls of the source. No cut-off for these calls is given here.

Assays:
DCN1-like protein 1 [1] = molecular target: T1, DCN1-like protein 1 (Homo sapiens, UniProt Q96GG9); experiment: Inhibition of GST-tagged DCN1 (unknown origin) using AcUBE2M1-21 incubated for 30 mins by HTRF assay
Target sequence in this assay (Q96GG9 whole entry): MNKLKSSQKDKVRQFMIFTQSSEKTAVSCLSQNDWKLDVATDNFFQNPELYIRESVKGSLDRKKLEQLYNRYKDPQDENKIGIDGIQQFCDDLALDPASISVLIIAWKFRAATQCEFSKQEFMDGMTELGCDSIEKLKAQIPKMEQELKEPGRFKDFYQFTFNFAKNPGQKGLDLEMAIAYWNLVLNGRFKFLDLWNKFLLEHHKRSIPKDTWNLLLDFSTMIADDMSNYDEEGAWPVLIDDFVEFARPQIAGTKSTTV

[2] = Cytotoxicity against Sprague-Dawley rat cardiac fibroblast by MTT assay; format: toxicity, cell-based, Fibroblast of cardiac tissue; details: cardiac fibroblasts
[3] = tested on: Fibroblast of cardiac tissue; experiment: Antifibrotic effect in SD rat cardiac fibroblast assessed as reduction in Ang II-induced collagen I upregulation preincubated for 2 hrs followed by Ang II-stimulation and further incubated for 24 hrs by western blot analysis (reference value: 71 %); format: functional; details: time 26.0 hrs
[4] = tested on: Fibroblast of cardiac tissue; experiment: Antifibrotic effect in SD rat cardiac fibroblast assessed as reduction in Ang II-induced activation of Nrf2 signaling pathway preincubated for 2 hrs followed by Ang II-stimulation and further incubated for 24 hrs by western blot analysis (reference value: 43 %); format: functional; details: time 26.0 hrs
DCN1-like protein 1 [5] = molecular target: T1, DCN1-like protein 1
Target sequence in this assay (Q96GG9 whole entry, looked up): as the sequence (Q96GG9 whole entry) above
Description: Binding affinity to DCN1 (unknown origin) assessed as change in entropy by MM-PBSA method

DCN1-like protein 1 [6] = molecular target: T1, DCN1-like protein 1; remark: listed apart in the source
Target sequence in this assay (Q96GG9 whole entry, looked up): as the sequence (Q96GG9 whole entry) above
Description: Binding affinity to DCN1 (unknown origin) assessed as Gibbs free energy change by MM-PBSA method

DCN1-like protein 2 = DCN1-like protein 2 (Homo sapiens, UniProt Q6PH85); experiment: Binding affinity to DCN2 (unknown origin) assessed as inhibitory constant
DCN1-like protein 3 = molecular target: T2, DCN1-like protein 3 (Homo sapiens, UniProt Q8IWE4); experiment: Binding affinity to DCN3 (unknown origin) assessed as inhibitory constant
T2 sequence (Q8IWE4 whole entry): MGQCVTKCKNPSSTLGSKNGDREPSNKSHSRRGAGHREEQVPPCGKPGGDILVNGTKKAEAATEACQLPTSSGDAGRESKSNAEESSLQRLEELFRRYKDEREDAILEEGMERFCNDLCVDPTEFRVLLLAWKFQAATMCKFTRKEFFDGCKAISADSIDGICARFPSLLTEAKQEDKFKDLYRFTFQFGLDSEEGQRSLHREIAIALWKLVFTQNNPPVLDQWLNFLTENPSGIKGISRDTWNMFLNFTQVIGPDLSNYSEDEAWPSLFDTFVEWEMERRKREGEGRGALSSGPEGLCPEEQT

DCN1-like protein 5 = molecular target: T3, DCN1-like protein 5 (Homo sapiens, UniProt Q9BTE7); experiment: Binding affinity to DCN5 (unknown origin) assessed as inhibitory constant
T3 sequence (Q9BTE7 whole entry): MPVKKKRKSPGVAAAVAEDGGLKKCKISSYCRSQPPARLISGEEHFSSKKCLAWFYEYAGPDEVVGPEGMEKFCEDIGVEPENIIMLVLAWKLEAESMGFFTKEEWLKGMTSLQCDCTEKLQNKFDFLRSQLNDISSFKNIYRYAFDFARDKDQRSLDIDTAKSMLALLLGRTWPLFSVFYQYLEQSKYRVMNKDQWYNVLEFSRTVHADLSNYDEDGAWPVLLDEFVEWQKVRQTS

Cardiac fibroblast = experiment: Inhibition of DCN1 in Sprague-Dawley rat cardiac fibroblast assessed as suppression in DCN1-UBC12 interaction by measuring reduction in UBC12 level at 10 uM incubated for 5 hrs co-incubated with DCN1 antibody by co-immunoprecipitation pull down assay; format: cell-based

DCN1-like protein 2, sequence (Q6PH85 whole entry): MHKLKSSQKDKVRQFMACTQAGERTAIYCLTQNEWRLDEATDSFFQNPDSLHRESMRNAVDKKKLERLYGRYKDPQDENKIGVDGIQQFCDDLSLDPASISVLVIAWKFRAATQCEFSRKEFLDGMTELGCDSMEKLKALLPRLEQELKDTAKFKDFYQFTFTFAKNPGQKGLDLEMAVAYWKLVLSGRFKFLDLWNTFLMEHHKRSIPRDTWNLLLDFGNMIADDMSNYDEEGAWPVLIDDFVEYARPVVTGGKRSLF

Structure (SMILES) | IC50 (DCN1-like protein 1 [1]) | further results
COc1ccc(CNc2nc(Sc3nnnn3C)cc(-c3cc(OC)c(OC)c(OC)c3)n2)cc1 | 4.13 µM | –
COc1cc(-c2nc(SCc3ccccc3)nc(Nc3cccc(Cl)c3)c2C#N)cc(OC)c1OC | 2.39 µM | –
COc1cc(-c2nc(SCc3ccc(C(F)(F)F)cc3)nc(Sc3nnnn3C)c2C#N)cc(OC)c1OC | 0.0291 µM | –
COc1cc(-c2nc(SCc3ccc(Cl)cc3)nc(Sc3nnnn3CCN(C)C)c2C#N)cc(OC)c1OC | 0.0253 µM | –
COc1cc(-c2nc(SCc3ccoc3C(F)(F)F)nc(Sc3nccs3)c2C#N)cc(OC)c1OC | 0.45 µM | –
Cc1ccc(CSc2nc(Sc3nccs3)c(C#N)c(-c3ccc(C)cc3)n2)cc1 | 0.0209 µM | –
COc1cc(-c2nc(SCc3ccc(C(F)(F)F)cc3)nc(Sc3nnnn3CCN(C)C)c2C#N)cc(OC)c1OC | 0.0605 µM | –
COc1ccc(Nc2nc(SCc3ccccc3)nc(-c3cc(OC)c(OC)c(OC)c3)c2C#N)cc1 | > 10 µM | –
COc1cc(-c2nc(SCc3ccccc3)nc(Nc3ccc(Cl)cc3)c2C#N)cc(OC)c1OC | > 10 µM | –
COc1cc(-c2nc(SCc3ccccc3)nc(Sc3nnnn3CCN(C)C)c2C#N)cc(OC)c1OC | 0.0281 µM | –
COc1cc(-c2nc(SCC3CCCCC3)nc(Sc3nccs3)c2C#N)cc(OC)c1OC | 0.611 µM | –
COc1cc(-c2nc(SCc3ccc(C(C)(C)C)cc3)nc(Sc3nnnn3C)c2C#N)cc(OC)c1OC | 1.22 µM | –
COC(=O)c1ccc(CSc2nc(Sc3nccs3)c(C#N)c(-c3cc(OC)c(OC)c(OC)c3)n2)cc1 | 0.00536 µM | –
COc1cc(-c2nc(SCc3ccccc3)nc(Sc3nc(C)c(C)s3)c2C#N)cc(OC)c1OC | > 10 µM | –
Cc1ccc(CSc2nc(Sc3nccs3)c(C#N)c(-c3cccc(C)c3)n2)cc1 | 1.69 µM | –
COc1cc(-c2nc(SCc3ccc4ccccc4c3)nc(Sc3nnnn3C)c2C#N)cc(OC)c1OC | 0.00615 µM | IC50 [2]: 18.9 µM
COc1cc(-c2nc(SCc3ccccc3)nc(Sc3nccs3)c2C#N)cc(OC)c1OC | 0.0282 µM | –
COc1cc(-c2nc(SCc3ccccc3)nc(NCc3nccs3)c2C#N)cc(OC)c1OC | > 10 µM | –
Cc1ccc(CSc2nc(Sc3nccs3)c(C#N)c(-c3ccccc3C)n2)cc1 | 0.463 µM | –
COc1cc(-c2nc(SCc3ccccc3C)nc(Sc3nccs3)c2C#N)cc(OC)c1OC | 0.89 µM | –

Structure (SMILES) | IC50 (DCN1-like protein 1 [1]) | further results
COc1cc(-c2nc(SCc3cccc(C(F)(F)F)c3)nc(Sc3nccs3)c2C#N)cc(OC)c1OC | 0.0293 µM | –
COc1cc(-c2nc(SCc3ccc(C(F)(F)F)cc3)nc(Sc3nccs3)c2C#N)cc(OC)c1OC | 0.1 µM | –
COc1ccc(-c2nc(SCc3ccc(C)cc3)nc(Sc3nccs3)c2C#N)cc1OC | 0.0171 µM | –
COc1cc(-c2cc(Sc3nnnn3C)nc(SCc3ccc(Cl)cc3)n2)cc(OC)c1OC | 9.62 µM | inhibition [3]: inactive; inhibition [4]: inactive; -TdeltaS (DCN1-like protein 1 [5]): 10.6 kcal/mol; deltaG (DCN1-like protein 1 [6]): -7.12 kcal/mol
COc1ccc(CSc2nc(Sc3nnnn3C)c(C#N)c(-c3cc(OC)c(OC)c(OC)c3)n2)cc1 | 0.0312 µM | –
COc1cc(-c2nc(SCc3ccc(Cl)cc3)nc(Sc3nccs3)c2C#N)cc(OC)c1OC | 0.0247 µM | –
COc1ccc(CSc2nc(Sc3nnnn3CCN(C)C)c(C#N)c(-c3cc(OC)c(OC)c(OC)c3)n2)cc1 | 0.0134 µM | –
COc1ccc(CSc2nc(Sc3nccs3)c(C#N)c(-c3cc(OC)c(OC)c(OC)c3)n2)cc1 | 2.57 µM | –
COc1cc(-c2nc(SCc3cccc(C)c3)nc(Sc3nnnn3C)c2C#N)cc(OC)c1OC | 0.0111 µM | –
COc1cc(-c2nc(SCc3cccc(C)c3)nc(Sc3nnnn3CCN(C)C)c2C#N)cc(OC)c1OC | 0.0124 µM | –
COc1cc(-c2nc(SCc3ccc(C)cc3)nc(Sc3nccs3)c2C#N)cc(OC)c1OC | 0.0422 µM | IC50 [2]: 6.15 µM
COc1cc(-c2nc(SCCc3ccccc3)nc(Sc3nccs3)c2C#N)cc(OC)c1OC | 2.57 µM | –
COc1cc(-c2nc(SCC(=O)NC(=O)Nc3ccccc3)nc(Sc3nccs3)c2C#N)cc(OC)c1OC | 6.18 µM | –
COc1cc(-c2nc(SCc3ccncc3)nc(Sc3nccs3)c2C#N)cc(OC)c1OC | 0.653 µM | –
Cc1ccc(CSc2nc(Sc3nccs3)c(C#N)c(-c3ccccc3)n2)cc1 | 2.79 µM | –
COc1cc(-c2nc(SCc3ccc(C)cc3)nc(Sc3nnnn3CCN(C)C)c2C#N)cc(OC)c1OC | 0.00937 µM | IC50 [2]: 26.1 µM
Cc1ccc(CSc2nc(Sc3nccs3)c(C#N)c(-c3ccc(Br)cc3)n2)cc1 | 0.0279 µM | –
COc1cc(-c2nc(SCc3ccccc3)nc(Nc3ccc(O)c(Cl)c3)c2C#N)cc(OC)c1OC | > 10 µM | –
COc1cc(-c2nc(SCc3ccc(C)cc3)nc(Sc3nnnn3C)c2C#N)cc(OC)c1OC | 0.00286 µM | IC50 [2]: 9.97 µM
Cc1ccc(CSc2nc(Sc3nccs3)c(C#N)c(-c3c[nH]c4ccccc34)n2)cc1 | > 10 µM | –

Structure (SMILES) | IC50 (DCN1-like protein 1 [1]) | further results
COc1cc(-c2nc(SCc3ccccc3)nc(Sc3nc(C)cs3)c2C#N)cc(OC)c1OC | 0.0411 µM | –
COc1cc(-c2nc(SCc3c(C)noc3C)nc(Sc3nccs3)c2C#N)cc(OC)c1OC | 0.412 µM | –
COc1cc(-c2nc(SCc3ccc4ccccc4c3)nc(Sc3nccs3)c2C#N)cc(OC)c1OC | 0.0364 µM | IC50 [2]: 22.9 µM
COc1cc(-c2nc(SCc3ccc4ccccc4c3)nc(Sc3nnnn3CCN(C)C)c2C#N)cc(OC)c1OC | 0.00225 µM | IC50 [2]: 25.8 µM
C#CCSc1nc(Sc2nnnn2C)c(C#N)c(-c2cc(OC)c(OC)c(OC)c2)n1 | 0.00025 µM | -TdeltaS (DCN1-like protein 1 [5]): 10.8 kcal/mol; deltaG (DCN1-like protein 1 [6]): -10.3 kcal/mol
COc1cc(-c2nc(SCc3ccccc3)nc(Sc3nnnn3C)c2C#N)cc(OC)c1OC | 0.0364 µM | –
COc1cc(-c2nc(SCc3cccc(C(F)(F)F)c3)nc(Sc3nnnn3C)c2C#N)cc(OC)c1OC | 0.0258 µM | –
COc1cc(-c2nc(SCC(=O)Nc3ccccc3)nc(Sc3nccs3)c2C#N)cc(OC)c1OC | 8.01 µM | –
COc1cc(-c2nc(SCc3ccccc3)nc(NC(C)(C)N3CCOCC3)c2C#N)cc(OC)c1OC | > 10 µM | –
COc1cc(-c2nc(SCc3nc4ccccc4[nH]3)nc(Sc3nccs3)c2C#N)cc(OC)c1OC | 0.814 µM | –
COc1cc(-c2nc(SCc3cccc(C)c3)nc(Sc3nccs3)c2C#N)cc(OC)c1OC | 0.00548 µM | IC50 [2]: 15.7 µM
COc1cc(-c2nc(SCc3cccc(C(F)(F)F)c3)nc(Sc3nnnn3CCN(C)C)c2C#N)cc(OC)c1OC | 0.0122 µM | –
CCCSc1nc(Sc2nccs2)c(C#N)c(-c2cc(OC)c(OC)c(OC)c2)n1 | 0.258 µM | –
COc1ccc(-c2nc(SCc3ccc(C)cc3)nc(Sc3nccs3)c2C#N)cc1 | 0.0212 µM | –
COc1cc(-c2nc(SCc3ccc(C(C)(C)C)cc3)nc(Sc3nccs3)c2C#N)cc(OC)c1OC | 0.0115 µM | –
C#CCSc1nc(Sc2nccs2)c(C#N)c(-c2ccc(C)cc2)n1 | 0.0183 µM | Ki (DCN1-like protein 2): 66.2 µM; Ki (DCN1-like protein 3): 592 µM; Ki (DCN1-like protein 5): 2.14 µM; inhibition (Cardiac fibroblast): Dose-Dependent Effect; IC50 [2]: 12.6 µM
Cc1ccc(CSc2nc(Sc3nccs3)c(C#N)c(-c3ccc(Cl)cc3)n2)cc1 | 0.0659 µM | –
C=CCSc1nc(Sc2nccs2)c(C#N)c(-c2cc(OC)c(OC)c(OC)c2)n1 | 0.0369 µM | –
Cc1ccc(CSc2nc(Sc3nccs3)c(C#N)c(-c3cccs3)n2)cc1 | > 10 µM | –
Cc1ccc(CSc2nc(Sc3nccs3)c(C#N)c(-c3ccc(Oc4ccccc4)cc3)n2)cc1 | 1.02 µM | –
